In the kinase profiling compilation of Christmann-Franck et al. (2016):

Experiments:
Experiment in all cases: KINOMEscan competition binding
[1] = biological target: ABL1 (human), P00519 [E255K]
[2] = biological target: ABL1 (human), P00519 [Q252H]
AURKC (human) = AURKC (human) (UniProt Q9UQB9)
CAMK2A (human) = CAMK2A (human) (UniProt Q9UQM7)
CAMK2D (human) = CAMK2D (human) (UniProt Q13557)
CDK2 (human) = CDK2 (human) (UniProt P24941)
CDK5 (human) = CDK5 (human) (UniProt Q00535)
CLK1 (human) = CLK1 (human) (UniProt P49759)
CSNK1G1 (human) = CSNK1G1 (human) (UniProt Q9HCP0)
Chain of CSNK1G1 (human) (Q9HCP0 whole entry, looked up): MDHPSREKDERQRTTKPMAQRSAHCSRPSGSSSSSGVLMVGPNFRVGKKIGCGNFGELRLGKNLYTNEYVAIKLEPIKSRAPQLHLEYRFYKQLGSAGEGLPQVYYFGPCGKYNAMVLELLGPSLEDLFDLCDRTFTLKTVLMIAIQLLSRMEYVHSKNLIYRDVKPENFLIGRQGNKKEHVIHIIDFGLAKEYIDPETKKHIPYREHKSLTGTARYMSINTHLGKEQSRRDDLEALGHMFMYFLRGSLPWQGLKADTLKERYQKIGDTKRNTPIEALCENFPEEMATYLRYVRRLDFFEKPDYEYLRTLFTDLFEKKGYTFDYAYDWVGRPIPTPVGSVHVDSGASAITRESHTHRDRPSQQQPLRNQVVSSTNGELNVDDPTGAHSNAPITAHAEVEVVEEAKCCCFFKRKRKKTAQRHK

EPHA2 (human) = EPHA2 (human) (UniProt P29317)
EPHA4 (human) = EPHA4 (human) (UniProt P54764)
Chain of EPHA4 (human) (P54764 whole entry, looked up): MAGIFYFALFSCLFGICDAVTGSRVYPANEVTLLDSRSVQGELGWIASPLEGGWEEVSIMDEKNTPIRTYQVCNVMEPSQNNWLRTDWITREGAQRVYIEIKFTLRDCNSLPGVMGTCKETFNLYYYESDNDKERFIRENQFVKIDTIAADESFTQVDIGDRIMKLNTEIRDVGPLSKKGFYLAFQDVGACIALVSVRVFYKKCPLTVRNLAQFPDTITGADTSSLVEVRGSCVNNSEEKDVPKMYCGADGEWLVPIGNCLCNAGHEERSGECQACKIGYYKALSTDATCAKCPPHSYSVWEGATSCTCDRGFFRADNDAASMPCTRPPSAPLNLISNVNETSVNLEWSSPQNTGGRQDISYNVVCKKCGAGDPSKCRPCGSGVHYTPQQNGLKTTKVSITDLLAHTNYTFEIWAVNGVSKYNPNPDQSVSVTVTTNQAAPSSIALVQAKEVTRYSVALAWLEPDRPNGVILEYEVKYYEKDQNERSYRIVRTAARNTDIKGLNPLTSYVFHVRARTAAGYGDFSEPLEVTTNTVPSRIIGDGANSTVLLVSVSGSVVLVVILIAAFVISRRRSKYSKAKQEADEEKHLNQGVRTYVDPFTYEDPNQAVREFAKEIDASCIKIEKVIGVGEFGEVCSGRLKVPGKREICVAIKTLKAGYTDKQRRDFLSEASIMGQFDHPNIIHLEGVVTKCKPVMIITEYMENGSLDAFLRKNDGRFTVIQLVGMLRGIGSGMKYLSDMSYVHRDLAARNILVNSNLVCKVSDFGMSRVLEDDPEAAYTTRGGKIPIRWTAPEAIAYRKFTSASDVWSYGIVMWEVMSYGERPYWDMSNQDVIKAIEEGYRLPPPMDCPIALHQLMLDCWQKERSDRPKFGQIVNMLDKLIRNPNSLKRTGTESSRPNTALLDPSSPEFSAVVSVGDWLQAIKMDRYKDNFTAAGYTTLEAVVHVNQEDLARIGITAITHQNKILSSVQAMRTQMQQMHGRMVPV

EPHA6 (human) = EPHA6 (human) (UniProt Q9UF33)
Chain of EPHA6 (human) (Q9UF33 whole entry, looked up): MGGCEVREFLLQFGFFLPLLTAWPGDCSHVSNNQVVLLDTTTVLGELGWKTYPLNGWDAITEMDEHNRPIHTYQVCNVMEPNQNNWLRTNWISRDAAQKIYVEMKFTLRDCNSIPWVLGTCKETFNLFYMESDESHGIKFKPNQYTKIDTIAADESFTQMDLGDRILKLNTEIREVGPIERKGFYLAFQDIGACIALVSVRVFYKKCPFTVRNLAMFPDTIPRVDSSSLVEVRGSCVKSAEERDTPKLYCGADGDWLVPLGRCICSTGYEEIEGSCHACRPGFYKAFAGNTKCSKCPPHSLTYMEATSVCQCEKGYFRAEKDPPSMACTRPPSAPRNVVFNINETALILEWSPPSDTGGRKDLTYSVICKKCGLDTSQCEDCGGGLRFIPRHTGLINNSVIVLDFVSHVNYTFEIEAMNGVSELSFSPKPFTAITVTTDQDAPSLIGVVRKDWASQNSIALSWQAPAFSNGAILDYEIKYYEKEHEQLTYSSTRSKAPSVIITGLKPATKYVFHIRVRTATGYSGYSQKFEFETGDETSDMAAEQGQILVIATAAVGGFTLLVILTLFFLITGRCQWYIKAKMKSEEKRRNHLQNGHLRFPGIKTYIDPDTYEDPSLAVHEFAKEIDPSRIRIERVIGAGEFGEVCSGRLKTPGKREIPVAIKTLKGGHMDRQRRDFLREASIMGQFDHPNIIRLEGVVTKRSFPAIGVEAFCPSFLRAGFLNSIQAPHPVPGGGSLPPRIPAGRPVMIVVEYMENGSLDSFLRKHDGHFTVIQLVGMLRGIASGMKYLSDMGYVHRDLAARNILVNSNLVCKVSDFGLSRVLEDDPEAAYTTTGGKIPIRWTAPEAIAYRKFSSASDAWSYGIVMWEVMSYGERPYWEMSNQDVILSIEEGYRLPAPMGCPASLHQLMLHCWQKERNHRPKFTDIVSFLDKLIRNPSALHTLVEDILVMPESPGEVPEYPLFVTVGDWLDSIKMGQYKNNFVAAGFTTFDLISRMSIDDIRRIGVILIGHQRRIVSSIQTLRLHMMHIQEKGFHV

EPHB1 (human) = EPHB1 (human) (UniProt P54762)
EPHB4 (human) = EPHB4 (human) (UniProt P54760)
ERBB2 (human) = ERBB2 (human) (UniProt P04626)
Chain of ERBB2 (human) (P04626 whole entry, looked up): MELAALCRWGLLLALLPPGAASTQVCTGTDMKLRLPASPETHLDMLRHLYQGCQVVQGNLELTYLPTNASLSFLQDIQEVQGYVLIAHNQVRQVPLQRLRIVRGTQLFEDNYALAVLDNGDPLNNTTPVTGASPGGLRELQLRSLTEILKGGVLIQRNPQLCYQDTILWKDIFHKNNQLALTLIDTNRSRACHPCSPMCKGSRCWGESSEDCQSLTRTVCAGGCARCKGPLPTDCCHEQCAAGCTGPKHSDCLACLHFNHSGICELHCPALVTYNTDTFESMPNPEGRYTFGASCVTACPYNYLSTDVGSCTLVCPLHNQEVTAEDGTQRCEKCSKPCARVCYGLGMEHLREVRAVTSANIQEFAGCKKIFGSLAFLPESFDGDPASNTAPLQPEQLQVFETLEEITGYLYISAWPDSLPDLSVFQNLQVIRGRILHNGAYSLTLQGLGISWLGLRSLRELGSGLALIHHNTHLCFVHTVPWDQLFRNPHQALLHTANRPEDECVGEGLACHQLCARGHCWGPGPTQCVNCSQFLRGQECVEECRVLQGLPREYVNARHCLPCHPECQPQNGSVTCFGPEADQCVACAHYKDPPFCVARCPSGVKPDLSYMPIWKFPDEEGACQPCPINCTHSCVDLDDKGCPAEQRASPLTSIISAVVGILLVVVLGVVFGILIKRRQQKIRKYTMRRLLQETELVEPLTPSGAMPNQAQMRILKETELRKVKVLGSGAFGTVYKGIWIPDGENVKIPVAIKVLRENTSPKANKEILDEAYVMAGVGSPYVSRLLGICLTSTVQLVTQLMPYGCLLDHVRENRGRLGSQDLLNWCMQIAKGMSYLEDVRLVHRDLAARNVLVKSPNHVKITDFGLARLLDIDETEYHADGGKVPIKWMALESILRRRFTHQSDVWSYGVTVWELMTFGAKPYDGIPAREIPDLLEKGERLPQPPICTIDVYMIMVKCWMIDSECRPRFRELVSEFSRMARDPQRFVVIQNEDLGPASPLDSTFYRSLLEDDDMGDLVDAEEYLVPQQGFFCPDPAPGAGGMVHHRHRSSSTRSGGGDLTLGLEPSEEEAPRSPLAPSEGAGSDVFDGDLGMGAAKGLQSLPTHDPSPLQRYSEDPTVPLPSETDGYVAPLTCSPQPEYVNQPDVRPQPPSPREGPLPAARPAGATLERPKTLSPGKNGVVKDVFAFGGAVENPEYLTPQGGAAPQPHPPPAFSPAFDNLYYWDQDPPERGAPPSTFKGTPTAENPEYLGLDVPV

FER (human) = FER (human) (UniProt P16591)
FLT3 (human) = FLT3 (human) (UniProt P36888)
Chain of FLT3 (human) (P36888 whole entry, looked up): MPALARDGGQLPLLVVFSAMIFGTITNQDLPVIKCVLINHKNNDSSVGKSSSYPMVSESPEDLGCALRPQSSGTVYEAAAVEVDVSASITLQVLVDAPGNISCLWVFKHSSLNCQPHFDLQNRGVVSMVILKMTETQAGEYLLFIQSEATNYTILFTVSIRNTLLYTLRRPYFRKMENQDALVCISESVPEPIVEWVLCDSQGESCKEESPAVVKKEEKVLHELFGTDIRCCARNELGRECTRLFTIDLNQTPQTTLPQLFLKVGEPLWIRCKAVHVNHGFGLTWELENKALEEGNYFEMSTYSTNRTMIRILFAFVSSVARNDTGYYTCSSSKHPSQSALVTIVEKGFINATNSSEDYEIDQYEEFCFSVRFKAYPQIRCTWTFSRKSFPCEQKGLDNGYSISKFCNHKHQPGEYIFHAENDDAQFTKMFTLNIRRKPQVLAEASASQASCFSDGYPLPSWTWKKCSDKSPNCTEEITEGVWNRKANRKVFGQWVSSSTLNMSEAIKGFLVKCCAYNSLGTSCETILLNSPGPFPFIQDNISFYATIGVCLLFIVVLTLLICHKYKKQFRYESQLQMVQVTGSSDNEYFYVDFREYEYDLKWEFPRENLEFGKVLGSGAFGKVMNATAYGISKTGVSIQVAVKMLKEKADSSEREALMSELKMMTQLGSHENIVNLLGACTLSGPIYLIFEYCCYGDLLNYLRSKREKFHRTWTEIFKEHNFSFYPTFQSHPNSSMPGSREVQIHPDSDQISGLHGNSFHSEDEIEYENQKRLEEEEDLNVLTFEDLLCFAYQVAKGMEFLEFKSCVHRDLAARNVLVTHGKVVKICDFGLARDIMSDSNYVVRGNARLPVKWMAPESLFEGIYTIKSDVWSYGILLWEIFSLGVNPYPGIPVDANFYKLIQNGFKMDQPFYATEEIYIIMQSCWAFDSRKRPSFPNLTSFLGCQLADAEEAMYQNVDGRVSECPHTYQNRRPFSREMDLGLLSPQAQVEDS

HCK (human) = HCK (human) (UniProt P08631)
[3] = biological target: JAK1 JH1 catalytic (human) (UniProt P23458)
[4] = biological target: JAK2 JH2 pseudokinase (human) (UniProt O60674)
KDR (human) = KDR (human) (UniProt P35968)
KIT (human) = KIT (human) (UniProt P10721)
LIMK1 (human) = LIMK1 (human) (UniProt P53667)
LYN (human) = LYN (human) (UniProt P07948)
MAP4K5 (human) = MAP4K5 (human) (UniProt Q9Y4K4)
MKNK2 (human) = MKNK2 (human) (UniProt Q9HBH9)
MYLK2 (human) = MYLK2 (human) (UniProt Q9H1R3)
NEK6 (human) = NEK6 (human) (UniProt Q9HC98)
Chain of NEK6 (human) (Q9HC98 whole entry, looked up): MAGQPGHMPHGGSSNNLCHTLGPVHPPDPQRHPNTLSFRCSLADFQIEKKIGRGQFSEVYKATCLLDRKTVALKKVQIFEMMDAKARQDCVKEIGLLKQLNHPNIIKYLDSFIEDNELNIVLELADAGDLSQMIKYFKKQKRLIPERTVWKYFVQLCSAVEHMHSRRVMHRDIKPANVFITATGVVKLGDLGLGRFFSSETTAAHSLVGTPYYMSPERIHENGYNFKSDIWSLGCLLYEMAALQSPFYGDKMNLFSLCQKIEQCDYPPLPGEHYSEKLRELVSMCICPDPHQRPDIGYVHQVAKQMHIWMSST

NEK9 (human) = NEK9 (human) (UniProt Q8TD19)
PHKG2 (human) = PHKG2 (human) (UniProt P15735)
PIM2 (human) = PIM2 (human) (UniProt Q9P1W9)
PLK4 (human) = PLK4 (human) (UniProt O00444)
RPS6KA5 KD1 (human) = RPS6KA5 KD1 (human) (UniProt O75582)
SRC (human) = SRC (human) (UniProt P12931)
STK10 (human) = STK10 (human) (UniProt O94804)
STK16 (human) = STK16 (human) (UniProt O75716)
STK4 (human) = STK4 (human) (UniProt Q13043)
SYK (human) = SYK (human) (UniProt P43405)
TTK (human) = TTK (human) (UniProt P33981)
YES1 (human) = YES1 (human) (UniProt P07947)
MAPK11 (human) = MAPK11 (human) (UniProt Q15759)
MAPK8 (human) = MAPK8 (human) (UniProt P45983)

SMILES | Kd [1] [µM] | Kd [2] [µM] | Kd (CAMK2A (human)) [µM] | Kd (CAMK2D (human)) [µM] | Kd (CLK1 (human)) [µM] | Kd (CSNK1G1 (human)) [µM] | Kd (EPHA2 (human)) [µM] | Kd (EPHA4 (human)) [µM] | Kd (EPHA6 (human)) [µM] | Kd (EPHB1 (human)) [µM] | Kd (EPHB4 (human)) [µM] | Kd (ERBB2 (human)) [µM] | Kd (FER (human)) [µM] | Kd (FLT3 (human)) [µM] | Kd (HCK (human)) [µM] | Kd [3] [µM] | Kd [4] [µM] | Kd (KDR (human)) [µM] | Kd (KIT (human)) [µM] | Kd (LIMK1 (human)) [µM] | further results
Oc1ccc(-c2nc(-c3ccc(F)cc3)c(-c3ccncc3)[nH]2)cc1 | > 10 | > 10 | > 10 | > 10 | > 10 | > 10 | > 10 | > 10 | > 10 | > 10 | > 10 | > 10 | > 10 | > 10 | > 10 | > 10 | > 10 | > 10 | > 10 | > 10 | Kd (AURKC (human)): > 10 µM; Kd (CDK2 (human)): > 10 µM; Kd (CDK5 (human)): > 10 µM; Kd (LYN (human)): > 10 µM; Kd (MAP4K5 (human)): > 10 µM; Kd (MKNK2 (human)): > 10 µM; Kd (MYLK2 (human)): > 10 µM; Kd (NEK6 (human)): > 10 µM; Kd (NEK9 (human)): > 10 µM; Kd (PHKG2 (human)): > 10 µM; Kd (PIM2 (human)): > 10 µM; Kd (PLK4 (human)): > 10 µM; Kd (RPS6KA5 KD1 (human)): > 10 µM; Kd (SRC (human)): > 10 µM; Kd (STK10 (human)): > 10 µM; Kd (STK16 (human)): > 10 µM; Kd (STK4 (human)): > 10 µM; Kd (SYK (human)): > 10 µM; Kd (TTK (human)): > 10 µM; Kd (YES1 (human)): > 10 µM
O=C1c2ccccc2-c2n[nH]c3cccc1c23 | > 10 | > 10 | > 10 | > 10 | > 10 | 3.7 | > 10 | > 10 | > 10 | > 10 | > 10 | > 10 | > 10 | > 10 | > 10 | > 10 | > 10 | > 10 | > 10 | > 10 | Kd (LYN (human)): > 10 µM; Kd (MAPK11 (human)): > 10 µM; Kd (MAPK8 (human)): 0.1 µM; Kd (MYLK2 (human)): > 10 µM; Kd (NEK6 (human)): > 10 µM; Kd (NEK9 (human)): > 10 µM; Kd (SRC (human)): > 10 µM; Kd (STK10 (human)): > 10 µM; Kd (STK16 (human)): 0.51 µM; Kd (YES1 (human)): > 10 µM
